Measurements published in ChEMBL document CHEMBL5523679, “Discovery of 1,2,3-triazole incorporated indole-piperazines as potent antitubercular agents: Design, synthesis, in vitro biological evaluation, molecular docking and ADME studies” (Bioorg Med Chem, 2024).

Assays:
Type in all cases: functional
[1] = system: Mycobacterium tuberculosis; assay: Antimycobacterial activity against Mycobacterium tuberculosis H37Rv assessed as bacterial growth inhibition by microplate Alamar blue assay
Pseudomonas aeruginosa [2] = assay: Antibacterial activity against Pseudomonas aeruginosa assessed as inhibition zone at 75 ug/ml by diffusion method; settings: read-out: IZ
Escherichia coli [3] = assay: Antibacterial activity against Escherichia coli assessed as inhibition zone at 75 ug/ml by diffusion method; settings: read-out: IZ
Staphylococcus aureus [4] = assay: Antibacterial activity against Staphylococcus aureus assessed as inhibition zone at 50 ug/ml by diffusion method; settings: read-out: IZ
Staphylococcus aureus [5] = assay: Antibacterial activity against Staphylococcus aureus assessed as inhibition zone at 75 ug/ml by diffusion method; settings: read-out: IZ
Staphylococcus aureus [6] = assay: Antibacterial activity against Staphylococcus aureus assessed as inhibition zone at 25 ug/ml by diffusion method; settings: read-out: IZ
Escherichia coli [7] = assay: Antibacterial activity against Escherichia coli assessed as inhibition zone at 50 ug/ml by diffusion method; settings: read-out: IZ
Pseudomonas aeruginosa [8] = assay: Antibacterial activity against Pseudomonas aeruginosa assessed as inhibition zone at 50 ug/ml by diffusion method; settings: read-out: IZ
Pseudomonas aeruginosa [9] = assay: Antibacterial activity against Pseudomonas aeruginosa assessed as inhibition zone at 25 ug/ml by diffusion method; settings: read-out: IZ
Escherichia coli [10] = assay: Antibacterial activity against Escherichia coli assessed as inhibition zone at 25 ug/ml by diffusion method; settings: read-out: IZ

`NC(=O)c1cnccn1` [PYRAZINAMIDE] was tested, and the MIC [1] was 25.3 µM.
`O=C(CCc1cn(Cc2cn(Cc3ccc(F)cc3)nn2)c2ccccc12)N1CCN(C(=O)c2ccccc2)CC1` showed a zone of inhibition at 75 µg/mL (Pseudomonas aeruginosa [2]) of 12 mm, an MIC [1] of 22.7 µM and a zone of inhibition at 75 µg/mL (Escherichia coli [3]) of 18 mm. The zone of inhibition at 50 µg/mL (Staphylococcus aureus [4]) was 10 mm, the zone of inhibition at 75 µg/mL (Staphylococcus aureus [5]) was 20 mm and the zone of inhibition at 25 µg/mL (Staphylococcus aureus [6]) was 13 mm. For the same compound, the zone of inhibition at 50 µg/mL (Escherichia coli [7]) was 15 mm and the zone of inhibition at 50 µg/mL (Pseudomonas aeruginosa [8]) was 10 mm.
In the case of `O=C(Cc1cn(Cc2ccc(F)cc2)c2ccccc12)N1CCN(S(=O)(=O)c2ccc(Cl)cc2)CC1`, the zone of inhibition at 75 µg/mL (Pseudomonas aeruginosa [2]) is reported as 13 mm, the MIC [1] is reported as 23.8 µM and the zone of inhibition at 75 µg/mL (Escherichia coli [3]) is reported as 18 mm. It also gave a zone of inhibition at 50 µg/mL (Staphylococcus aureus [4]) of 18 mm, a zone of inhibition at 75 µg/mL (Staphylococcus aureus [5]) of 22 mm and a zone of inhibition at 25 µg/mL (Staphylococcus aureus [6]) of 15 mm. It also gave a zone of inhibition at 50 µg/mL (Escherichia coli [7]) of 15 mm.
Compound `O=C(Cc1c[nH]c2ccccc12)N1CCN(C(=O)c2ccc(F)cc2)CC1` has a zone of inhibition at 75 µg/mL (Pseudomonas aeruginosa [2]) of 10 mm, an MIC [1] of 68.4 µM and a zone of inhibition at 75 µg/mL (Escherichia coli [3]) of 18 mm. The zone of inhibition at 50 µg/mL (Staphylococcus aureus [4]) was 13 mm, the zone of inhibition at 75 µg/mL (Staphylococcus aureus [5]) was 20 mm and the zone of inhibition at 50 µg/mL (Escherichia coli [7]) was 15 mm.
For `O=C(CCc1cn(Cc2ccc(F)cc2)c2ccccc12)N1CCN(S(=O)(=O)c2ccc(Cl)cc2)CC1`, the zone of inhibition at 75 µg/mL (Pseudomonas aeruginosa [2]) was 17 mm, the MIC [1] was 23.1 µM and the zone of inhibition at 75 µg/mL (Escherichia coli [3]) was 18 mm. For the same compound, the zone of inhibition at 50 µg/mL (Staphylococcus aureus [4]) was 18 mm, the zone of inhibition at 75 µg/mL (Staphylococcus aureus [5]) was 23 mm and the zone of inhibition at 25 µg/mL (Staphylococcus aureus [6]) was 15 mm. For the same compound, the zone of inhibition at 50 µg/mL (Escherichia coli [7]) was 15 mm and the zone of inhibition at 50 µg/mL (Pseudomonas aeruginosa [8]) was 13 mm.
With `O=C(Cc1cn(Cc2ccc(F)cc2)c2ccccc12)N1CCN(C(=O)c2ccccc2)CC1` the zone of inhibition at 75 µg/mL (Pseudomonas aeruginosa [2]) was 12 mm, the MIC [1] was > 120 µM and the zone of inhibition at 75 µg/mL (Escherichia coli [3]) was 12 mm. The zone of inhibition at 50 µg/mL (Staphylococcus aureus [4]) was 17 mm, the zone of inhibition at 75 µg/mL (Staphylococcus aureus [5]) was 23 mm and the zone of inhibition at 25 µg/mL (Staphylococcus aureus [6]) was 13 mm. For the same compound, the zone of inhibition at 50 µg/mL (Escherichia coli [7]) was 10 mm and the zone of inhibition at 50 µg/mL (Pseudomonas aeruginosa [8]) was 10 mm.
Compound `O=C(CCc1c[nH]c2ccccc12)N1CCN(C(=O)c2ccc(F)cc2)CC1` has a zone of inhibition at 75 µg/mL (Pseudomonas aeruginosa [2]) of 13 mm, an MIC [1] of 65.9 µM and a zone of inhibition at 75 µg/mL (Escherichia coli [3]) of 18 mm. It also gave a zone of inhibition at 50 µg/mL (Staphylococcus aureus [4]) of 15 mm, a zone of inhibition at 75 µg/mL (Staphylococcus aureus [5]) of 20 mm and a zone of inhibition at 25 µg/mL (Staphylococcus aureus [6]) of 13 mm. For the same compound, the zone of inhibition at 50 µg/mL (Escherichia coli [7]) was 15 mm and the zone of inhibition at 50 µg/mL (Pseudomonas aeruginosa [8]) was 10 mm.
Work on `O=C(O)c1cn(C2CC2)c2cc(N3CCNCC3)c(F)cc2c1=O` [CIPROFLOXACIN] yielded a zone of inhibition at 75 µg/mL (Pseudomonas aeruginosa [2]) of 21 mm, a zone of inhibition at 25 µg/mL (Pseudomonas aeruginosa [9]) of 15 mm and a zone of inhibition at 75 µg/mL (Escherichia coli [3]) of 32 mm. For the same compound, the zone of inhibition at 50 µg/mL (Staphylococcus aureus [4]) was 21 mm, the zone of inhibition at 75 µg/mL (Staphylococcus aureus [5]) was 26 mm and the zone of inhibition at 25 µg/mL (Staphylococcus aureus [6]) was 18 mm. For the same compound, the zone of inhibition at 50 µg/mL (Escherichia coli [7]) was 27 mm and the zone of inhibition at 50 µg/mL (Pseudomonas aeruginosa [8]) was 18 mm.
With `O=C(Cc1c[nH]c2ccccc12)N1CCN(C(=O)c2ccccc2)CC1` the zone of inhibition at 75 µg/mL (Pseudomonas aeruginosa [2]) was 13 mm, the zone of inhibition at 25 µg/mL (Escherichia coli [10]) was 6 mm and the MIC [1] was > 120 µM. For the same compound, the zone of inhibition at 75 µg/mL (Escherichia coli [3]) was 12 mm, the zone of inhibition at 50 µg/mL (Staphylococcus aureus [4]) was 12 mm and the zone of inhibition at 75 µg/mL (Staphylococcus aureus [5]) was 15 mm. For the same compound, the zone of inhibition at 25 µg/mL (Staphylococcus aureus [6]) was 10 mm, the zone of inhibition at 50 µg/mL (Escherichia coli [7]) was 9 mm and the zone of inhibition at 50 µg/mL (Pseudomonas aeruginosa [8]) was 9 mm.
With `NNC(=O)c1ccncc1` [ISONIAZID] the MIC [1] was 11.7 µM.
Compound `O=C(CCc1c[nH]c2ccccc12)N1CCN(C(=O)c2ccc(Cl)cc2)CC1` has a zone of inhibition at 75 µg/mL (Pseudomonas aeruginosa [2]) of 12 mm, an MIC [1] of 63.1 µM and a zone of inhibition at 75 µg/mL (Escherichia coli [3]) of 12 mm. It also gave a zone of inhibition at 50 µg/mL (Staphylococcus aureus [4]) of 15 mm, a zone of inhibition at 75 µg/mL (Staphylococcus aureus [5]) of 20 mm and a zone of inhibition at 25 µg/mL (Staphylococcus aureus [6]) of 10 mm. It also gave a zone of inhibition at 50 µg/mL (Escherichia coli [7]) of 10 mm and a zone of inhibition at 50 µg/mL (Pseudomonas aeruginosa [8]) of 10 mm.
`O=C(Cc1c[nH]c2ccccc12)N1CCN(C(=O)c2ccc(Cl)cc2)CC1` gave a zone of inhibition at 75 µg/mL (Pseudomonas aeruginosa [2]) of 15 mm, an MIC [1] of 65.5 µM and a zone of inhibition at 75 µg/mL (Escherichia coli [3]) of 12 mm. The zone of inhibition at 50 µg/mL (Staphylococcus aureus [4]) was 15 mm, the zone of inhibition at 75 µg/mL (Staphylococcus aureus [5]) was 20 mm and the zone of inhibition at 25 µg/mL (Staphylococcus aureus [6]) was 13 mm. The zone of inhibition at 50 µg/mL (Escherichia coli [7]) was 10 mm and the zone of inhibition at 50 µg/mL (Pseudomonas aeruginosa [8]) was 10 mm.
For `O=C(CCc1c[nH]c2ccccc12)N1CCN(C(=O)c2ccccc2)CC1`, the zone of inhibition at 75 µg/mL (Pseudomonas aeruginosa [2]) was 12 mm, the MIC [1] was > 120 µM and the zone of inhibition at 75 µg/mL (Escherichia coli [3]) was 15 mm. It also gave a zone of inhibition at 50 µg/mL (Staphylococcus aureus [4]) of 13 mm, a zone of inhibition at 75 µg/mL (Staphylococcus aureus [5]) of 15 mm and a zone of inhibition at 50 µg/mL (Escherichia coli [7]) of 13 mm. For the same compound, the zone of inhibition at 50 µg/mL (Pseudomonas aeruginosa [8]) was 10 mm.
`O=C(CCc1cn(Cc2ccc(F)cc2)c2ccccc12)N1CCN(S(=O)(=O)c2ccc(F)cc2)CC1` gave a zone of inhibition at 75 µg/mL (Pseudomonas aeruginosa [2]) of 12 mm, an MIC [1] of 23.8 µM and a zone of inhibition at 75 µg/mL (Escherichia coli [3]) of 18 mm. The zone of inhibition at 50 µg/mL (Staphylococcus aureus [4]) was 18 mm, the zone of inhibition at 75 µg/mL (Staphylococcus aureus [5]) was 23 mm and the zone of inhibition at 25 µg/mL (Staphylococcus aureus [6]) was 15 mm. It also gave a zone of inhibition at 50 µg/mL (Escherichia coli [7]) of 14 mm and a zone of inhibition at 50 µg/mL (Pseudomonas aeruginosa [8]) of 10 mm.
